Test results: ChEMBL document CHEMBL1132959, “Design of potent dicyclic (1-5/4-10) gonadotropin releasing hormone (GnRH) antagonists” (J Med Chem, 2000)
Blank lines part the entries; values can stand above or below the compound they belong to. Bridge positions count the residues as written; N and C are the ends. Square brackets hold non-standard residues; d marks the D form. Peptide text beside a SMILES is read from it. dPhe(4-Cl) = N[C@H](Cc1ccc(Cl)cc1)C(=O)O; dPhe(4-F) = N[C@H](Cc1ccc(F)cc1)C(=O)O; d2Nal = N[C@H](Cc1ccc2ccccc2c1)C(=O)O; NMeL = CN[C@@H](CC(C)C)C(=O)O; ΔPro = O=C(O)[C@@H]1C=CCN1; Dap = NC[C@H](N)C(=O)O; βAla = NCCC(=O)O

Assays:
[1] = organism: Rattus norvegicus; assay: Antiovulatory potency at 10 ug/rat expressed as rats ovulating by total no. of rats (0/10); assay type: functional
[2] = organism: Rattus norvegicus; assay: Antiovulatory potency at 5 ug/rat expressed as rats ovulating by total no. of rats (3/20); assay type: functional
[3] = organism: Rattus norvegicus; assay: Antiovulatory potency at 25 ug/rat expressed as rats ovulating by total no. of rats (0/3); assay type: functional
[4] = organism: Rattus norvegicus; assay: Antiovulatory potency at 10 ug/rat expressed as rats ovulating by total no. of rats (1/6); assay type: functional
[5] = organism: Rattus norvegicus; assay: Antiovulatory potency at 5 ug/rat expressed as rats ovulating by total no. of rats (2/8); assay type: functional
[6] = organism: Rattus norvegicus; assay: Antiovulatory potency at 5 ug/rat expressed as rats ovulating by total no. of rats (1/8); assay type: functional
[7] = target: T1, Gonadotropin-releasing hormone receptor (Rattus norvegicus, UniProt P30969); assay: Affinity for rat gonadotrophin releasing hormone (GnRH) receptor using HEK293 cells transfected with rat Gonadotropin-releasing hormone receptor; assay type: cell-based; details: hek293
T1 sequence (P30969 whole entry): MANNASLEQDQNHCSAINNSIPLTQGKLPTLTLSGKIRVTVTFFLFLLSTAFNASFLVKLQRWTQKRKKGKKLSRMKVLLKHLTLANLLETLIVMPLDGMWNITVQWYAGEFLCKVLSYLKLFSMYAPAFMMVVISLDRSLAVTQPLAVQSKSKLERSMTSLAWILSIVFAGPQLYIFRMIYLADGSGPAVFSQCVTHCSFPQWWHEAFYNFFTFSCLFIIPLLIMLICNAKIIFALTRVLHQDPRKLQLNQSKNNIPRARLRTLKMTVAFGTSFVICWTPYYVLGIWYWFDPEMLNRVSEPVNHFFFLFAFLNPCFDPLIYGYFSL

[8] = organism: Rattus norvegicus; assay: Antiovulatory potency at 2.5 ug/rat expressed as rats ovulating by total no. of rats (0/5); assay type: functional
[9] = organism: Rattus norvegicus; assay: Antiovulatory potency at 50 ug/rat expressed as rats ovulating by total no. of rats (0/6); assay type: functional
[10] = organism: Rattus norvegicus; assay: Antiovulatory potency at 10 ug/rat expressed as rats ovulating by total no. of rats (5/6); assay type: functional
[11] = organism: Rattus norvegicus; assay: Antiovulatory potency at 25 ug/rat expressed as rats ovulating by total no. of rats (7/8); assay type: functional
[12] = organism: Rattus norvegicus; assay: Antiovulatory potency at 5 ug/rat expressed as rats ovulating by total no. of rats (2/3); assay type: functional
[13] = organism: Rattus norvegicus; assay: Antiovulatory potency at 50 ug/rat expressed as rats ovulating by total no. of rats (3/3); assay type: functional
[14] = organism: Rattus norvegicus; assay: Antiovulatory potency at 10 ug/rat expressed as rats ovulating by total no. of rats (4/5); assay type: functional
[15] = organism: Rattus norvegicus; assay: Antiovulatory potency at 25 ug/rat expressed as rats ovulating by total no. of rats (3/8); assay type: functional
[16] = target: T1, Gonadotropin-releasing hormone receptor; assay: Affinity for rat Gonadotropin-releasing hormone receptor membrane evaluated using HEK293 cells transfected with rat Gonadotropin-releasing hormone receptor; assay type: cell-based
[17] = organism: Rattus norvegicus; assay: Antiovulatory potency at 50 ug/rat expressed as rats ovulating by total no. of rats (0/3); assay type: functional
[18] = organism: Rattus norvegicus; assay: Antiovulatory potency at 25 ug/rat expressed as rats ovulating by total no. of rats (2/4); assay type: functional
[19] = organism: Rattus norvegicus; assay: Antiovulatory potency at 10 ug/rat expressed as rats ovulating by total no. of rats (0/5); assay type: functional
[20] = organism: Rattus norvegicus; assay: Antiovulatory potency at 10 ug/rat expressed as rats ovulating by total no. of rats (4/4); assay type: functional
[21] = organism: Rattus norvegicus; assay: Antiovulatory potency at 25 ug/rat expressed as rats ovulating by total no. of rats (4/8); assay type: functional
[22] = organism: Rattus norvegicus; assay: Antiovulatory potency at 25 ug/rat expressed as rats ovulating by total no. of rats (3/6); assay type: functional
[23] = organism: Rattus norvegicus; assay: Antiovulatory potency at 10 ug/rat expressed as rats ovulating by total no. of rats (3/3); assay type: functional
[24] = organism: Rattus norvegicus; assay: Antiovulatory potency at 100 ug/rat expressed as rats ovulating by total no. of rats (0/3); assay type: functional
[25] = organism: Rattus norvegicus; assay: Antiovulatory potency at 50 ug/rat expressed as rats ovulating by total no. of rats (2/5); assay type: functional
[26] = organism: Rattus norvegicus; assay: Antiovulatory potency at 250 ug/rat expressed as rats ovulating by total no. of rats (3/6); assay type: functional
[27] = organism: Rattus norvegicus; assay: Antiovulatory potency at 100 ug/rat expressed as rats ovulating by total no. of rats (2/6); assay type: functional
[28] = organism: Rattus norvegicus; assay: Antiovulatory potency at 100 ug/rat expressed as rats ovulating by total no. of rats (7/12); assay type: functional
[29] = organism: Rattus norvegicus; assay: Antiovulatory potency at 25 ug/rat expressed as rats ovulating by total no. of rats (4/4); assay type: functional
[30] = organism: Rattus norvegicus; assay: Antiovulatory potency at 50 ug/rat expressed as rats ovulating by total no. of rats (4/8); assay type: functional
[31] = organism: Rattus norvegicus; assay: Antiovulatory potency at 100 ug/rat expressed as rats ovulating by total no. of rats (0/8); assay type: functional
[32] = organism: Rattus norvegicus; assay: Antiovulatory potency at 250 ug/rat expressed as rats ovulating by total no. of rats (5/6); assay type: functional
[33] = organism: Rattus norvegicus; assay: Antiovulatory potency at 50 ug/rat expressed as rats ovulating by total no. of rats (5/5); assay type: functional
[34] = organism: Rattus norvegicus; assay: Antiovulatory potency at 5 ug/rat expressed as rats ovulating by total no. of rats (4/10); assay type: functional
[35] = organism: Rattus norvegicus; assay: Antiovulatory potency at 1500 ug/rat expressed as rats ovulating by total no. of rats (9/10); assay type: functional

SMILES: CC(=O)N[C@H](Cc1ccc2ccccc2c1)C(=O)N[C@H](Cc1ccc(F)cc1)C(=O)N[C@H](Cc1c[nH]c2ccccc12)C(=O)N[C@H]1CC(=O)NC[C@@H](C(N)=O)NC(=O)[C@@H]2CCCN2C(=O)[C@@H]2CCCCNC(=O)CC[C@H](NC1=O)C(=O)N[C@H](CCCN=C(N)N)C(=O)N[C@@H](CC(C)C)C(=O)N2
Ovulating rats [1]: 0 | Ovulating rats [2]: 3

SMILES: CC(=O)N[C@H](Cc1ccc2ccccc2c1)C(=O)N[C@H](Cc1ccc(F)cc1)C(=O)N[C@H](Cc1cccnc1)C(=O)N[C@H]1CC(=O)NC[C@@H](C(N)=O)NC(=O)[C@@H]2CCCN2C(=O)[C@@H]2CCNC(=O)CNC(=O)CC[C@H](NC1=O)C(=O)N[C@H](CCCN=C(N)N)C(=O)N[C@@H](CC(C)C)C(=O)N2
Ovulating rats [3]: 0 | Ovulating rats [4]: 1 | Ovulating rats [5]: 2

SMILES: CC(=O)N[C@@H]1CCC(=O)NCC(=O)NCC[C@H]2NC(=O)[C@@H](CC(=O)NC[C@H](C(N)=O)NC(=O)[C@H]3CCCN3C(=O)[C@H](CCCN=C(N)N)NC(=O)[C@@H](CC(C)C)NC(=O)[C@@H](CCCN=C(N)N)NC2=O)NC(=O)[C@@H](Cc2c[nH]c3ccccc23)NC(=O)[C@H](Cc2ccc(Cl)cc2)NC1=O
Ovulating rats [12]: 2 | Ovulating rats [13]: 3 | Ki [7]: 17 nM

SMILES: CC(=O)N[C@@H]1CCC(=O)NCCCC[C@@H]2NC(=O)[C@H](CC(C)C)NC(=O)[C@@H](Cc3ccc4ccccc4c3)NC(=O)[C@H](CCCN=C(N)N)NC(=O)[C@H](CC(=O)NC[C@H](C(N)=O)NC(=O)[C@@H]3CCCN3C2=O)NC(=O)[C@@H](Cc2cccnc2)NC(=O)[C@H](Cc2ccc(Cl)cc2)NC1=O
Ovulating rats [26]: 3 | Ovulating rats [27]: 2 | Ki [7]: 1.8 nM

SMILES: CC(=O)N[C@@H]1CSSC[C@H]2NC(=O)[C@@H](CC(=O)NC[C@H](C(N)=O)NC(=O)[C@H]3CCCN3C(=O)[C@H](CCCN=C(N)N)NC(=O)[C@@H](CC(C)C)NC(=O)[C@H](Cc3ccc4ccccc4c3)NC2=O)NC(=O)[C@@H](Cc2c[nH]c3ccccc23)NC(=O)[C@H](Cc2ccc(Cl)cc2)NC1=O
Ovulating rats [28]: 7 | Ki [7]: 5.7 nM

SMILES: CC(=O)N[C@H]1CC(=O)NCC(=O)NCC[C@H]2NC(=O)[C@H](CC(=O)NC[C@@H](C(N)=O)NC(=O)[C@@H]3CCCN3C(=O)[C@H](CCCN=C(N)N)NC(=O)[C@H](CC(C)C)NC(=O)[C@@H](Cc3ccc4ccccc4c3)NC2=O)NC(=O)[C@@H](Cc2c[nH]c3ccccc23)NC(=O)[C@@H](Cc2ccc(Cl)cc2)NC1=O
Ovulating rats [29]: 4 | Ovulating rats [30]: 4 | Ovulating rats [31]: 0

SMILES: CC(=O)N[C@H](Cc1ccc2ccccc2c1)C(=O)N[C@H](Cc1ccc(Cl)cc1)C(=O)N[C@@H]1CSSC[C@@H](C(=O)N2CCC[C@H]2C(=O)N[C@H](C)C(N)=O)NC(=O)[C@H](CC(C)C)NC(=O)[C@@H](Cc2ccc3ccccc3c2)NC(=O)[C@H](CCCN=C(N)N)NC(=O)[C@H](C)NC1=O
Ovulating rats [32]: 5 | Ovulating rats [33]: 5

SMILES: CC(=O)N1CC=C[C@H]1C(=O)N[C@H](Cc1ccc(F)cc1)C(=O)N[C@H](Cc1c[nH]c2ccccc12)C(=O)N[C@H]1CC(=O)NC[C@@H](C(N)=O)NC(=O)[C@@H]2CCCN2C(=O)[C@H](CCCN=C(N)N)NC(=O)[C@H](CC(C)C)NC(=O)[C@@H](Cc2ccc3ccccc3c2)NC(=O)[C@H](Cc2ccc(O)cc2)NC1=O (Ac-[ΔPro][dPhe(4-F)][dW]DY[d2Nal]LRP[Dap]-NH2; lactam 4-10)
Ovulating rats [1]: 0 | Ovulating rats [34]: 4

SMILES: CC(C)C[C@H]1C(=O)N[C@@H](CCCN=C(N)N)C(=O)N2CCC[C@H]2C(=O)NCCC(=O)N2CC=C[C@H]2C(=O)N[C@H](Cc2ccc(Cl)cc2)C(=O)N[C@H](Cc2c[nH]c3ccccc23)C(=O)N[C@@H](CO)C(=O)N[C@@H](Cc2ccc(O)cc2)C(=O)N[C@H](Cc2c[nH]c3ccccc23)C(=O)N1C (cyclo([NMeL]RP[βAla][ΔPro][dPhe(4-Cl)][dW]SY[dW]))
Ovulating rats [35]: 9

Now from value to compound, other results behind:

Ki [7]: 0.15 nM
SMILES: CC(=O)N[C@@H]1CC(=O)NCCC(=O)NCC[C@H]2NC(=O)[C@@H](CC(=O)NC[C@H](C(N)=O)NC(=O)[C@H]3CCCN3C(=O)[C@H](CCCN=C(N)N)NC(=O)[C@@H](CC(C)C)NC(=O)[C@@H](Cc3ccc4ccccc4c3)NC2=O)NC(=O)[C@@H](Cc2c[nH]c3ccccc23)NC(=O)[C@H](Cc2ccc(Cl)cc2)NC1=O
Ovulating rats [6]: 1 | Ovulating rats [8]: 0

Ki [7]: 1.1 nM
SMILES: CC(=O)N[C@@H]1CCC(=O)NCC(=O)NCCC[C@H]2NC(=O)[C@@H](CC(=O)NC[C@H](C(N)=O)NC(=O)[C@H]3CCCN3C(=O)[C@H](CCCN=C(N)N)NC(=O)[C@@H](CC(C)C)NC(=O)[C@@H](Cc3ccc4ccccc4c3)NC2=O)NC(=O)[C@@H](Cc2c[nH]c3ccccc23)NC(=O)[C@H](Cc2ccc(Cl)cc2)NC1=O
Ovulating rats [9]: 0 | Ovulating rats [10]: 5 | Ovulating rats [11]: 7

Ki [16]: 0.26 nM
SMILES: CC(=O)N[C@@H]1CCC(=O)NCCCC[C@H]2NC(=O)[C@@H](CC(=O)NC[C@H](C(N)=O)NC(=O)[C@H]3CCCN3C(=O)[C@H](CCCN=C(N)N)NC(=O)[C@@H](CC(C)C)NC(=O)[C@@H](Cc3ccc4ccccc4c3)NC2=O)NC(=O)[C@@H](Cc2c[nH]c3ccccc23)NC(=O)[C@H](Cc2ccc(Cl)cc2)NC1=O
Ovulating rats [14]: 4 | Ovulating rats [15]: 3 | Ovulating rats [17]: 0

Ki [7]: 0.22 nM
SMILES: CC(=O)N[C@@H]1CCC(=O)N[C@H](C)C(=O)NCC[C@H]2NC(=O)[C@@H](CC(=O)NC[C@H](C(N)=O)NC(=O)[C@H]3CCCN3C(=O)[C@H](CCCN=C(N)N)NC(=O)[C@@H](CC(C)C)NC(=O)[C@@H](Cc3ccc4ccccc4c3)NC2=O)NC(=O)[C@@H](Cc2c[nH]c3ccccc23)NC(=O)[C@H](Cc2ccc(Cl)cc2)NC1=O
Ovulating rats [18]: 2 | Ovulating rats [19]: 0

Ki [7]: 0.86 nM
SMILES: CC(=O)N[C@@H]1CCC(=O)NCCC[C@H]2NC(=O)[C@@H](CC(=O)NC[C@H](C(N)=O)NC(=O)[C@H]3CCCN3C(=O)[C@H](CCCN=C(N)N)NC(=O)[C@@H](CC(C)C)NC(=O)[C@@H](Cc3ccc4ccccc4c3)NC2=O)NC(=O)[C@@H](Cc2c[nH]c3ccccc23)NC(=O)[C@H](Cc2ccc(Cl)cc2)NC1=O
Ovulating rats [20]: 4 | Ovulating rats [21]: 4

Ki [7]: 0.31 nM
SMILES: CC(=O)N[C@@H]1CC(=O)NCC(=O)NCCC[C@H]2NC(=O)[C@@H](CC(=O)NC[C@H](C(N)=O)NC(=O)[C@H]3CCCN3C(=O)[C@H](CCCN=C(N)N)NC(=O)[C@@H](CC(C)C)NC(=O)[C@@H](Cc3ccc4ccccc4c3)NC2=O)NC(=O)[C@@H](Cc2c[nH]c3ccccc23)NC(=O)[C@H](Cc2ccc(Cl)cc2)NC1=O
Ovulating rats [22]: 3 | Ovulating rats [23]: 3 | Ovulating rats [24]: 0 | Ovulating rats [25]: 2
